According to ChEMBL document CHEMBL3885881, “DrugMatrix”:

Species: Rattus norvegicus
Assay: DrugMatrix - Regimen: Daily Repeat
Format: toxicity, organism-based, Sprague-Dawley
Parameters: regimen Daily Repeat, gender Male, age 6-8 weeks
Conditions: in vivo, iv, vehicle 100 % SALINE; for ABSOLUTE BASOPHIL / ABSOLUTE EOSINOPHIL / ABSOLUTE LYMPHOCYTE / ABSOLUTE MONOCYTE / ABSOLUTE SEGMENTED NEUTROPHIL / BASOPHIL / EOSINOPHIL / ERYTHROCYTE COUNT / HEMATOCRIT / HEMOGLOBIN / LEUKOCYTE COUNT / LYMPHOCYTE / MEAN CORPUSCULAR HEMOGLOBIN / MEAN CORPUSCULAR HEMOGLOBIN CONCENTRATION / MEAN CORPUSCULAR VOLUME / MONOCYTE / NEUTROPHIL / NUCLEATED RED BLOOD CELLS / PLATELET COUNT: tissue Blood; for ALANINE AMINOTRANSFERASE / ALBUMIN / ALKALINE PHOSPHATASE / ASPARTATE AMINOTRANSFERASE / BLOOD UREA NITROGEN / CARBON DIOXIDE / CHLORIDE / CHOLESTEROL / CREATINE PHOSPHOKINASE / CREATININE / GLUCOSE / LACTATE DEHYDROGENASE / LIPASE / PHOSPHORUS / POTASSIUM / SODIUM / TOTAL BILIRUBIN / TOTAL PROTEIN / URIC ACID: tissue Plasma
[1] = 0 mg/kg, 72 h, dose level Control, time 3 day
[2] = 0 mg/kg, 120 h, dose level Control, time 5 day
[3] = […], 72 h, dose 0.15 mg/Kg, dose level Low, time 3 day
[4] = […], 72 h, dose 1.5 mg/Kg, dose level High, time 3 day

CCC1=C[C@@H]2CN(C1)Cc1c([nH]c3ccccc13)[C@@](C(=O)OC)(c1cc3c(cc1OC)N(C)[C@H]1[C@@](O)(C(=O)OC)[C@H](OC(C)=O)[C@]4(CC)C=CCN5CC[C@]31[C@@H]54)C2 [VINORELBINE]
ABSOLUTE BASOPHIL [1]: 0 CELLS/uL | ABSOLUTE EOSINOPHIL [1]: 15.33 CELLS/uL | ABSOLUTE LYMPHOCYTE [1]: 9513.5 CELLS/uL | ABSOLUTE MONOCYTE [1]: 94.67 CELLS/uL | ABSOLUTE SEGMENTED NEUTROPHIL [1]: 709.83 CELLS/uL | BASOPHIL [1]: 0% | EOSINOPHIL [1]: 0.17% | ERYTHROCYTE COUNT [1]: 5.63 x10E6/uL | HEMATOCRIT [1]: 34.63% | HEMOGLOBIN [1]: 13.6 G/DL | LEUKOCYTE COUNT [1]: 10.33 x10E3/uL | LYMPHOCYTE [1]: 92% | MEAN CORPUSCULAR HEMOGLOBIN [1]: 24.17 pg | MEAN CORPUSCULAR HEMOGLOBIN CONCENTRATION [1]: 39.28 G/DL | MEAN CORPUSCULAR VOLUME [1]: 61.57 fL | MONOCYTE [1]: 0.83% | NEUTROPHIL [1]: 7% | NUCLEATED RED BLOOD CELLS [1]: 0 /100WBC | PLATELET COUNT [1]: 903.17 x10E3/uL | ALANINE AMINOTRANSFERASE [1]: 49.33 u/L | ALBUMIN [1]: 4.27 G/DL | ALKALINE PHOSPHATASE [1]: 400.83 u/L | ASPARTATE AMINOTRANSFERASE [1]: 77.5 u/L | BLOOD UREA NITROGEN [1]: 16.33 mg/dL | CARBON DIOXIDE [1]: 29.33 mmol/L | CHLORIDE [1]: 99.67 MEQ/L | CHOLESTEROL [1]: 66.67 mg/dL | CREATINE PHOSPHOKINASE [1]: 275.33 u/L | CREATININE [1]: 0.18 mg/dL | GLUCOSE [1]: 163.83 mg/dL | LACTATE DEHYDROGENASE [1]: 125.33 u/L | LIPASE [1]: 10 u/L | PHOSPHORUS [1]: 12.12 mg/dL | POTASSIUM [1]: 6.68 MEQ/L | SODIUM [1]: 144.02 MEQ/L | TOTAL BILIRUBIN [1]: 0.18 mg/dL | TOTAL PROTEIN [1]: 5.87 G/DL | URIC ACID [1]: 1.63 mg/dL | ABSOLUTE BASOPHIL [2]: 0 CELLS/uL | ABSOLUTE EOSINOPHIL [2]: 48.83 CELLS/uL | ABSOLUTE LYMPHOCYTE [2]: 14562 CELLS/uL | ABSOLUTE MONOCYTE [2]: 138.67 CELLS/uL | ABSOLUTE SEGMENTED NEUTROPHIL [2]: 1733.83 CELLS/uL | BASOPHIL [2]: 0% | EOSINOPHIL [2]: 0.33% | ERYTHROCYTE COUNT [2]: 5.89 x10E6/uL | HEMATOCRIT [2]: 36.7% | HEMOGLOBIN [2]: 14.42 G/DL | LEUKOCYTE COUNT [2]: 16.48 x10E3/uL | LYMPHOCYTE [2]: 88.83% | MEAN CORPUSCULAR HEMOGLOBIN [2]: 24.52 pg | MEAN CORPUSCULAR HEMOGLOBIN CONCENTRATION [2]: 39.3 G/DL | MEAN CORPUSCULAR VOLUME [2]: 62.37 fL | MONOCYTE [2]: 0.67% | NEUTROPHIL [2]: 10.17% | NUCLEATED RED BLOOD CELLS [2]: 0 /100WBC | PLATELET COUNT [2]: 1076.5 x10E3/uL | ALANINE AMINOTRANSFERASE [2]: 44.67 u/L | ALBUMIN [2]: 4.23 G/DL | ALKALINE PHOSPHATASE [2]: 357.33 u/L | ASPARTATE AMINOTRANSFERASE [2]: 84.83 u/L | BLOOD UREA NITROGEN [2]: 15.5 mg/dL | CARBON DIOXIDE [2]: 27 mmol/L | CHLORIDE [2]: 99.5 MEQ/L | CHOLESTEROL [2]: 63.67 mg/dL | CREATINE PHOSPHOKINASE [2]: 331.33 u/L | CREATININE [2]: 0.18 mg/dL | GLUCOSE [2]: 167.33 mg/dL | LACTATE DEHYDROGENASE [2]: 320.17 u/L | LIPASE [2]: 9.17 u/L | PHOSPHORUS [2]: 12.05 mg/dL | POTASSIUM [2]: 6.54 MEQ/L | SODIUM [2]: 143.02 MEQ/L | TOTAL BILIRUBIN [2]: 0.2 mg/dL | TOTAL PROTEIN [2]: 6.23 G/DL | URIC ACID [2]: 2.07 mg/dL | ABSOLUTE BASOPHIL [3]: 0 CELLS/uL | ABSOLUTE EOSINOPHIL [3]: 49.67 CELLS/uL | ABSOLUTE LYMPHOCYTE [3]: 13595.67 CELLS/uL | ABSOLUTE MONOCYTE [3]: 462 CELLS/uL | ABSOLUTE SEGMENTED NEUTROPHIL [3]: 1292.67 CELLS/uL | BASOPHIL [3]: 0% | EOSINOPHIL [3]: 0.33% | ERYTHROCYTE COUNT [3]: 5.91 x10E6/uL | HEMATOCRIT [3]: 37.77% | HEMOGLOBIN [3]: 14.97 G/DL | LEUKOCYTE COUNT [3]: 15.4 x10E3/uL | LYMPHOCYTE [3]: 87.67% | MEAN CORPUSCULAR HEMOGLOBIN [3]: 25.3 pg | MEAN CORPUSCULAR HEMOGLOBIN CONCENTRATION [3]: 39.63 G/DL | MEAN CORPUSCULAR VOLUME [3]: 63.93 fL | MONOCYTE [3]: 3% | NEUTROPHIL [3]: 9% | NUCLEATED RED BLOOD CELLS [3]: 0 /100WBC | PLATELET COUNT [3]: 1301 x10E3/uL | ABSOLUTE BASOPHIL [4]: 0 CELLS/uL | ABSOLUTE EOSINOPHIL [4]: 0 CELLS/uL | ABSOLUTE LYMPHOCYTE [4]: 5207.33 CELLS/uL | ABSOLUTE MONOCYTE [4]: 23 CELLS/uL | ABSOLUTE SEGMENTED NEUTROPHIL [4]: 236.33 CELLS/uL | BASOPHIL [4]: 0% | EOSINOPHIL [4]: 0% | ERYTHROCYTE COUNT [4]: 5.25 x10E6/uL | HEMATOCRIT [4]: 33.27% | HEMOGLOBIN [4]: 13.3 G/DL | LEUKOCYTE COUNT [4]: 5.47 x10E3/uL | LYMPHOCYTE [4]: 95.33% | MEAN CORPUSCULAR HEMOGLOBIN [4]: 25.4 pg | MEAN CORPUSCULAR HEMOGLOBIN CONCENTRATION [4]: 40 G/DL | MEAN CORPUSCULAR VOLUME [4]: 63.43 fL | MONOCYTE [4]: 0.33% | NEUTROPHIL [4]: 4.33% | NUCLEATED RED BLOOD CELLS [4]: 0.33 /100WBC | PLATELET COUNT [4]: 808.33 x10E3/uL
